pIC50: −log10 of the molar value.
Molecular target: T1, PIKFYVE (Homo sapiens, UniProt Q9Y2I7)
T1 construct: purchased Eurofins (KINOMEscan); host or cells: E. coli BL21-derived (T7 phage display) or HEK-293
Assay: KINOMEscan Kinase Assay (Eurofins), PIKFYVE inhibitory activity
Format: binding
Conditions: for pIC50: KINOMEscan; for inhibition at 0.005 µM: @ 5 nM; for inhibition at 0.003 µM: @ 3 nM

T1 sequence (Q9Y2I7 whole entry): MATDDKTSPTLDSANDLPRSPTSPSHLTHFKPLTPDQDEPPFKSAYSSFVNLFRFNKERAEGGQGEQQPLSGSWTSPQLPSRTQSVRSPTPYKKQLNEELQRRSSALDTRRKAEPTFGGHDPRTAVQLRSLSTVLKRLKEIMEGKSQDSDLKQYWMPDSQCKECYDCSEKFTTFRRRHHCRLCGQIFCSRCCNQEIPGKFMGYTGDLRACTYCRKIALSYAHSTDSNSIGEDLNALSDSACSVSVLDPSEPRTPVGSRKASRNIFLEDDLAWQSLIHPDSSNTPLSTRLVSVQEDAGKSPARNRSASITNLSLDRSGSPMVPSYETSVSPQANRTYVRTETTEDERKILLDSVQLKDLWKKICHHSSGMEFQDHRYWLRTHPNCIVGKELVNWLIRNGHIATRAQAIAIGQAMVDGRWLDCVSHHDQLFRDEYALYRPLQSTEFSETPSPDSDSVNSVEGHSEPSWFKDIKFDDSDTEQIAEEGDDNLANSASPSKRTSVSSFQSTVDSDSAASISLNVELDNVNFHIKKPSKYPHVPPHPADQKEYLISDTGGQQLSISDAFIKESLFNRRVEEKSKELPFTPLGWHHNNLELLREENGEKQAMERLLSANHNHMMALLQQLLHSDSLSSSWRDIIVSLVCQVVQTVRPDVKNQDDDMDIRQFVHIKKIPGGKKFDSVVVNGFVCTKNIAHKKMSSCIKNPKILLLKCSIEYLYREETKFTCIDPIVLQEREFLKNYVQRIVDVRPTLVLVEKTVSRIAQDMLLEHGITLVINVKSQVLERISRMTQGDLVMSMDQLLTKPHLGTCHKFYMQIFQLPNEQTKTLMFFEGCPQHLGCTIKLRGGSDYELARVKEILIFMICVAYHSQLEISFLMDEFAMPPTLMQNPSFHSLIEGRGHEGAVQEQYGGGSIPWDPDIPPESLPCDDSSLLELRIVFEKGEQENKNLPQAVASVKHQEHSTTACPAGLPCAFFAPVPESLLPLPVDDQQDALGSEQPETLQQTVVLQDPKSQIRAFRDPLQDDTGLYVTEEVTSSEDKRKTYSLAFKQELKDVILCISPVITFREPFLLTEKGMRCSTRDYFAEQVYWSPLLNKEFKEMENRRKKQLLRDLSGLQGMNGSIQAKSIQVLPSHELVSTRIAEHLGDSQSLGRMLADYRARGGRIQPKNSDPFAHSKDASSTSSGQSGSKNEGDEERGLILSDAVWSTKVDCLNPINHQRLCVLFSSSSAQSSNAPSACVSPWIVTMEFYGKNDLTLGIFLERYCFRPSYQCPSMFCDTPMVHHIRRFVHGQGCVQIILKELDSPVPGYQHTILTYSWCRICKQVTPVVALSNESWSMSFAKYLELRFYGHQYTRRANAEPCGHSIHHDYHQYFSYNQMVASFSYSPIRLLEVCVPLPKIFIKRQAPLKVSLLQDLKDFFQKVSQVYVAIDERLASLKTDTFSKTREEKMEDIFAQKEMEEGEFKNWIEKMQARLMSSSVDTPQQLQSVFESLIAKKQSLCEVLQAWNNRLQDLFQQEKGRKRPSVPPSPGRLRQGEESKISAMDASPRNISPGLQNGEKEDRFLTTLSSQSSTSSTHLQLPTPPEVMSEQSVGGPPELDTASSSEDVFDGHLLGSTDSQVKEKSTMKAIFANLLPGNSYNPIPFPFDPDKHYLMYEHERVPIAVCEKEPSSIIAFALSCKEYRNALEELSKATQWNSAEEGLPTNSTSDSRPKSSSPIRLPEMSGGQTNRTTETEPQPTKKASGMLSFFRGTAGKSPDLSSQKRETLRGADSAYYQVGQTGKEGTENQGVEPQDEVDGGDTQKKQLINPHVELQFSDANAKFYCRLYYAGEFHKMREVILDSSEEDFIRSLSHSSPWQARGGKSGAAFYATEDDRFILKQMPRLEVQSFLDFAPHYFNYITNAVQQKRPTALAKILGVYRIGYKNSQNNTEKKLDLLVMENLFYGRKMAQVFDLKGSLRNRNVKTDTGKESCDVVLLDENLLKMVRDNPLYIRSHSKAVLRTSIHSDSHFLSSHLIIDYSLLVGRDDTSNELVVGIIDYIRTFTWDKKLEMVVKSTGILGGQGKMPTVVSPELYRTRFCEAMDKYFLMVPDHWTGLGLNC

Row | pIC50 | SMILES | also measured
1 | 8.00 to 9.00 | Cc1cccc(-c2ccn(-c3nc(N4CCOCC4)c4sc(C(=O)N5CCN(C)CC5)c(C)c4n3)n2)c1 [Ex. 59, (7-methyl-4-morpholino-2-(3-(m-tolyl)-1H-pyrazol-1-yl)thieno[3,2-d]pyrimidin-6-yl)(4-methylpiperazin-1-yl)methanone] | 
2 | 8.00 to 9.00 | Cc1cccc(-c2ccn(-c3nc(N4CCOCC4)c4nc(CN5CCN(S(C)(=O)=O)CC5)n(C)c4n3)n2)c1 [Ex. 57, 4-(9-methyl-8-((4-(methylsulfonyl)piperazin-1-yl)methyl)-2-(3-(m-tolyl)-1H-pyrazol-1-yl)-9H-purin-6-yl)morpholine] | 
3 | > 9.00 | Cc1cccc(-c2ccn(-c3cc(N4CCOCC4)c4sc(CN5CCN(C)CC5)cc4n3)n2)c1 [Ex. 67] | 
4 | > 9.00 | Cc1cccc(-c2ccn(-c3nc(N4CCOCC4)c4sc(C(=O)N5CC[C@H](N(C)C)C5)cc4n3)n2)c1 [Ex. 24, (S)-(3-(dimethylamino)pyrrolidin-1-yl)(4-morpholino-2-(3-(m-tolyl)-1H-pyrazol-1-yl)thieno[3,2-d]pyrimidin-6-yl)methanone] | 
5 | 8.00 to 9.00 | Cc1cccc(-c2ccn(-c3nc(N4CCOCC4)c4sc(CN5CCC6(OCCO6)C(F)C5)cc4n3)n2)c1 (stereo not shown) [Ex. 50, 6-fluoro-8-((4-morpholino-2-(3-(m-tolyl)-1H-pyrazol-1-yl)thieno[3,2-d]pyrimidin-6-yl)methyl)-1,4-dioxa-8-azaspiro[4.5]decane] | 
6 | 8.00 to 9.00 | COC(C)(C)c1sc2c(N3CCOCC3)nc(-n3ccc(-c4cccc(C)c4)n3)nc2c1C [Ex. 64, 4-(6-(2-methoxypropan-2-yl)-7-methyl-2-(3-(m-tolyl)-1H-pyrazol-1-yl)thieno[3,2-d]pyrimidin-4-yl)morpholine] | 
7 | > 9.00 | Cc1cccc(-c2ccn(-c3cc(N4CCOCC4)c4nc(CN5CCC(N(C)C)C(F)C5)[nH]c4n3)n2)c1 (stereo not shown) [Ex. 52, 3-fluoro-N,N-dimethyl-1-((7-morpholino-5-(3-(m-tolyl)-1H-pyrazol-1-yl)-3H-imidazo[4,5-b]pyridin-2-yl)methyl)piperidin-4-amine] | 
8 | > 9.00 | Cc1cccc(-c2ccn(-c3nc(N4CCOCC4)c4nc(CN5CCC(N(C)C)CC5)[nH]c4n3)n2)c1 [Ex. 15, N,N-dimethyl-1-((6-morpholino-2-(3-(m-tolyl)-1H-pyrazol-1-yl)-9H-purin-8-yl)methyl)piperidin-4-amine] | 
9 | 8.00 to 9.00 | Cc1cccc(-c2ccn(-c3nc(N4CCOCC4)c4nc(CN5CCOCC5)sc4n3)n2)c1 [Ex. 30, 4-((7-morpholino-5-(3-(m-tolyl)-1H-pyrazolyl)thiazolo[5,4-d]pyrimidin-2-yl)methyl)morpholine] | 

The remaining lines, values behind:

Row | SMILES | pIC50 | also measured
10 | Cc1cccc(-c2ccn(-c3nc(N4CCOCC4)c4sc(CN5CC6C(C5)C6N(C)C)cc4n3)n2)c1 (stereo not shown) [Ex. 20, N,N-dimethyl-3-((4-morpholino-2-(3-(m-tolyl)-1H-pyrazol-1-yl)thieno[3,2-d]pyrimidin-6-yl)methyl)-3-azabicyclo[3.1.0]hexan-6-amine] | > 9.00 | 
11 | Cc1cccc(-c2ccn(-c3nc(N4CCOCC4)c4sc(CN5CCC(C(C)(C)O)CC5)cc4n3)n2)c1 [Ex. 5, 2-(1-((4-morpholino-2-(3-(m-tolyl)-1H-pyrazol-1-yl)thieno[3,2-d]pyrimidin-6-yl)methyl)piperidin-4-yl)propan-2-ol] |  | inhibition at 0.05 µM (@ 50 nM): 100%
12 | Cc1cccc(-c2ccn(-c3nc(N4CCOCC4)c4sc(CN5CCOCC5)cc4n3)n2)c1 [Ex. 29, 4-((4-morpholino-2-(3-(m-tolyl)-1H-pyrazol-1-yl)thieno[3,2-d]pyrimidin-6-yl)methyl)morpholine] | > 9.00 | 
13 | Cc1cccc(-c2ccn(-c3nc(N4CCOCC4)c4nc(CN5CCC(C(C)(C)O)CC5)n(C)c4n3)n2)c1 [Ex. 62, 2-(1-((9-methyl-6-morpholino-2-(3-(m-tolyl)-1H-pyrazol-1-yl)-9H-purin-8-yl)methyl)piperidin-4-yl)propan-2-ol] | 8.00 to 9.00 | 
14 | CC(=O)c1cccc(-c2ccn(-c3cc(N4CCOCC4)c4sc(CN5CCOCC5)cc4n3)n2)c1 [Ex. 184, 1-(3-(1-(7-Morpholino-2-(morpholinomethyl)thieno[3,2-b]pyridin-5-yl)-1H-pyrazol-3-yl)phenyl)ethan-1-one] |  | inhibition at 0.005 µM: 5%
15 | Cc1cccc(-c2ccn(-c3nc(N4CCOCC4)c4sc(CN5CCC(N(C)C)CC5)cc4n3)n2)c1 [Ex. 4, N, N-dimethyl-1-((4-morpholino-2-(3-(m-tolyl)-1H-pyrazol-1-yl)thieno[3,2-d]pyrimidin-6-yl)methyl)piperidin-4-amine] | > 9.00 | 
16 | Cc1cccc(-c2ccn(-c3nc(N4CCOCC4)c4nc(CN5CCC(N6CCC6)C(F)C5)[nH]c4n3)n2)c1 (stereo not shown) [Ex. 43, 4-(8-((4-(azetidin-1-yl)-3-fluoropiperidin-1-yl)methyl-2-(3-m-tolyl)-1H-pyrazol-1-yl)-9H-purin-6-yl)morpholine] | > 9.00 | 
17 | Cc1cccc(-c2ccn(-c3nc(N4CCOCC4)c4nc(CN5CCOCC5)[nH]c4n3)n2)c1 [Ex. 14, 4-((6-morpholino-2-(3-(m-tolyl)-1H-pyrazol-1-yl)-9H-purin-8-yl)methyl) morpholine] | 8.00 to 9.00 | 
18 | Cc1cccc(-c2ccn(-c3cc(N4CCOCC4)c4nc(CN5CCC(N6CCOCC6)CC5)[nH]c4n3)n2)c1 [Ex. 42, 4-(1-((7-morpholino-5-(3-(m-tolyl)-1H-pyrazol-1-yl)-3H-imidazo[4,5-b]pyridin-2-yl)methyl)piperidin-4-yl)morpholine] |  | inhibition at 1 µM (@ 1000 nM): 98%
19 | Cc1cccc(-c2ccn(-c3cc(N4CCOCC4)c4sc(CN5CCC(C(C)(C)O)CC5)c(C)c4n3)n2)c1 [Ex. 168, 2-(1-((3-Methyl-7-morpholino-5-(3-(m-tolyl)-1H-pyrazol-1-yl)thieno[3,2-b]pyridin-2-yl)methyl)piperidin-4-yl)propan-2-ol] |  | inhibition at 0.003 µM: 23%
20 | Cc1cc(-c2ccn(-c3cc(N4CCOCC4)c4sc(CN5CCOCC5)cc4n3)n2)ccn1 [Ex. 190, 4-(5-(3-(2-Methylpyridin-4-yl)-1H-pyrazol-1-yl)-2-(morpholinomethyl)thieno[3,2-b]pyridin-7-yl) morpholine] |  | inhibition at 0.005 µM: 5%
21 | Cc1cccc(-c2ccn(-c3nc(N4CCOCC4)c4sc(CO)c(C)c4n3)n2)c1 [Ex. 53, (7-methyl-4-morpholino-2-(3-(m-tolyl)-1H-pyrazol-1-yl)thieno[3,2-d]pyrimidin-6-yl)methanol] |  | inhibition at 0.001 µM (@ 1 nM): 17%
22 | Cc1cccc(-c2ccn(-c3nc(N4CCOCC4)c4nc(CN5CCOCC5)n(C)c4n3)n2)c1 [Ex. 56, 4-((9-methyl-6-morpholino-2-(3-(m-tolyl)-1H-pyrazol-1-yl)-9H-purin-8-yl)methyl)morpholine] |  | inhibition at 0.003 µM: 94%
23 | COc1cccc(-c2ccn(-c3nc(N4CCOCC4)c4sc(CN5CCN(S(C)(=O)=O)CC5)cc4n3)n2)c1 [Ex. 3, 4-(2-(3-(3-methoxyphenyl)-1H-pyrazol-1-yl)-6-((4-(methylsulfonyl)piperazin-1-yl)methyl)thieno[3,2-d]pyrimidin-4-yl)morpholine] | 8.00 to 9.00 | 
24 | Cc1cccc(-c2ccn(-c3nc(N4CCOCC4)c4nc(CN5CC(N6CCCC6)C5)[nH]c4n3)n2)c1 [Ex. 36, 4-(8-((3-(pyrrolidin-1-yl)azetidin-1-yl)methyl)-2-(3-(m-tolyl)-1H-pyrazol-1-yl)-9H-purin-6-yl)morpholine] | > 9.00 | 
25 | Cc1cccc(-c2ccn(-c3nc(N4CCOCC4)c4sc(CN5CC[C@@H](N(C)C)C5)cc4n3)n2)c1 [Ex. 18, (R)—N,N-dimethyl-1-((4-morpholino-2-(3-(m-tolyl)-1H-pyrazol-1-yl)thieno[3,2-d]pyrimidin-6-yl)methyl)pyrrolidin-3-amine] | > 9.00 | 

From patent publication US20230265103A1 (TME Therapeutics LLC, priority 2021, published 2023)
